US20260130864A1, “METHOD AND COMPOSITION FOR ENHANCING EXERCISE PERFORMANCE” (NANJING NUTRABUILDING BIO-TECH CO., LTD., priority 2023, published 2026)

How the values were obtained:
Type in all cases: in vivo
[1] = treadmill exercise endurance of mice after 4 weeks administration; settings: for running distance on treadmill when exhausted (exercise endurance): Swiss male mice, control 948 m
Procedure: (§1) Twenty-four pure Swiss male mice were randomly divided into three groups, with 8 mice in each group, and were given food and water freely under the light and dark cycle of 12:12 hours. The first group was the control group (group 1, no DHZ), the second group was given by gavage 50 mg/kg DHZ (group 2), and the third group was given by gavage 100 mg/kg DHZ (group 3). DHZ solution was prepared with 5% DMSO, 25% PEG-400, 30% propylene glycol and 40% normal saline. All the mice were administered at a dose of 10 mL/kg body weight for 4 weeks. 4 weeks later, these mice were made to run on treadmill voluntarily for exercise analysis, and the running distance of each of mice when exhausted was recorded. All the mice were untrained before exercise. Each group was perfused with paraformaldehyde, and brain tissue was frozen in liquid nitrogen for ELISA, and then dopamine was detected. The cecal feces of mice were collected and the flora was sequenced by 16s. The proportion of different bacteria in feces was obtained, and the DNA in feces was extracted to detect the copy number of Eubacterium rectale and Coprococcus eutactus. The statistical analysis of data was conducted by unpaired t-test, and * indicates significant difference. Compared with the control group, * means p<0.05; ** means p<0.01; *** means p<0.001; **** means p<0.0001.

[2] = test system: dopamine; assay: dopamine content in the brain of mice (ELISA); settings: 4 weeks; for dopamine content in the brain: control 3,293 ng/g brain
Procedure: as §1

[3] = test system: Eubacterium rectale; assay: bacterial copy number of Eubacterium rectale in cecal feces of mice; settings: after 4 weeks of DHZ administration
Procedure: as §1, with “p<0.0001. […]” for “p<0.0001.”

[4] = test system: Coprococcus eutactus; assay: bacterial copy number of Coprococcus eutactus in cecal feces of mice; settings: after 4 weeks of DHZ administration
Procedure: as §1, with “p<0.0001. […]” for “p<0.0001.”

[5] = high dose group (100 mg/kg by gavage)

SMILES: COc1cc(/C=C/C(C)=O)ccc1O [DHZ, Dehydrozingerone]
- running distance on treadmill when exhausted (exercise endurance) ([1]; 50 mg/kg DHZ by gavage (low-dose group)): 1112 m
- running distance on treadmill when exhausted (exercise endurance) ([1]; 100 mg/kg DHZ by gavage (high-dose group)): 1367 m
- exercise performance higher than that of control group ([1]; high-dose group (100 mg/kg by gavage)): 44%
- brain dopamine level, times higher than in the control group [2, 5]: 5 times
- dopamine content in the brain [2, 5]: 19,988 ng/g brain
- dopamine content in the brain ([2]; low dose group (50 mg/kg by gavage)): 16,285 ng/g brain
- increase of number (copy number) of Eubacterium rectale compared with the control group [3]: about 3 times
- increase of number (copy number) of Coprococcus eutactus compared with the control group [4]: about 3 times
